Measurements reported in patent US8399521B2, “Methods of treating skin with aromatic skin-active ingredients” (Mary Kay Inc., priority 2008, dated 2013).

What was measured:
TNF-α = TNF-α secretion by PMA-treated human keratinocytes (ELISA); assay type: cell-based; conditions: 0.01% test compound; PMA 10 ng/ml, 6 hours; % change in secreted TNF-α, negative = reduction; Table 2
Excerpt: Tumor necrosis factor alpha (TNF-α) assay: The prototype ligand of the TNF superfamily, TNF-α, is a pleiotropic cytokine that plays a central role in inflammation. Increase in its expression is associated with an up regulation in pro-inflammatory activity. This bioassay analyzes the effect of compounds on the production of TNF-α by human epidermal keratinocytes. The endpoint of this assay is a spectrophotometric measurement that reflects the presence of TNF-α and cellular viability. The assay employs the quantitative sandwich enzyme immunoassay technique whereby a monoclonal antibody specific for TNF-α has been pre-coated onto a microplate. Standards and samples are pipetted into the wells and any TNF-α present is bound by the immobilized antibody. After washing away any unbound substances, an enzyme-linked polyclonal antibody specific for TNF-α is added to the wells. Following a wash to remove any unbound antibody-enzyme reagent, a substrate solution is added to the wells and color develops in proportion to the amount of TNF-α bound in the initial step using a microplate reader for detection at 450 nm. The color development is stopped and the intensity of the color is measured.
Subconfluent normal human adult keratinocytes (Cascade Biologics) cultivated in EpiLife standard growth medium (Cascade Biologics) at 37° C. in 5% CO2, were treated with PMA (10 ng/ml, Sigma Chemical, #P1585-1MG) and test compounds for 6 hours. […] Following incubation, cell culture medium was collected and the amount of TNF-a secretion quantified using a sanwhich enzyme linked immuno-sorbant assay (ELISA) from R&D Systems ([…]). Following all manufacturer instructions, medium from treated cells was incubated with antibodies directed against human TNF-α which were bound to microtiter plates. The amount of TNF-α protein was quantified by comparison of optical density units to standard concentrations of purified TNF-α protein. Values are calculated as % change in the amount of TNF-α protein secreted between control and treated samples. […]

15-lipoxygenase = target: T1, 15-lipoxygenase (Glycine max, UniProt P08170); test: Lipoxygenase (LO) inhibition assay; assay type: biochemical; conditions: 0.1% test compound; negative = inhibition vs non-treated control; Table 2
T1 construct: purchased Cayman Chemical 760700
T1 sequence (P08170 1-839): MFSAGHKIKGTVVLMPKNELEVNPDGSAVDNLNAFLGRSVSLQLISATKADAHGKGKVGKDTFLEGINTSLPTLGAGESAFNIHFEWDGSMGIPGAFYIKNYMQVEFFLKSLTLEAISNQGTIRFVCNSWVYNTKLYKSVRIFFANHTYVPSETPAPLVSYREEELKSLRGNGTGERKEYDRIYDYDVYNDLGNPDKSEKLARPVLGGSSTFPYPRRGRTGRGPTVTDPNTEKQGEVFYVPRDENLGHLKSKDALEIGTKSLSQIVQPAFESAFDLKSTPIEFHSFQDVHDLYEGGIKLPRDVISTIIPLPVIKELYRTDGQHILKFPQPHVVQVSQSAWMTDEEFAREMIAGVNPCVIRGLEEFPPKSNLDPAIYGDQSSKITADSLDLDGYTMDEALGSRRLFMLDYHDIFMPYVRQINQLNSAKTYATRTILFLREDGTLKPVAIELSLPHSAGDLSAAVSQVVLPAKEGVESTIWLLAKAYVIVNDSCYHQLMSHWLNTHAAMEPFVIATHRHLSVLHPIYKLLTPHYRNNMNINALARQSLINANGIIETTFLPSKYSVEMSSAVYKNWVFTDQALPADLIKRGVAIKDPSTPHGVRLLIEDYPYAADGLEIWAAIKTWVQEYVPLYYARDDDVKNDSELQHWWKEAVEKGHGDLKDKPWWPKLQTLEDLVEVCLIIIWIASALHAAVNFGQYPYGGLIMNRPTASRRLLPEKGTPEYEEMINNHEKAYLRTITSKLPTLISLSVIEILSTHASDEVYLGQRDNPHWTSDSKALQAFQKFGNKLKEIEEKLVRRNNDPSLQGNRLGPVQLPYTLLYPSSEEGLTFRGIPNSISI
Experimental: Lipoxygenase (LO) assay: An in vitro lipoxygenase (LO) inhibition assay. LOs are non-heme iron-containing dioxygenases that catalyze the addition of molecular oxygen to fatty acids. Linoleate and arachidonate are the main substrates for LOs in plants and animals. […] This assay provides an accurate and convenient method for screening lipoxygenase inhibitors by measuring the hydroperoxides generated from the incubation of a lipoxygenase (5-, 12-, or 15-LO) with arachidonic acid.
Following incubation, arachidonic acid was added to initiate the reaction and mixtures incubated for an additional 10 min at room temperature. Colorimetric substrate was added to terminate catalysis and color progression was evaluated by fluorescence plate reading at 490 nm. The percent inhibition of lipoxyganse activity was calculated compared to non-treated controls to determine the ability of test compounds to inhibit the activity of purified enzyme.

Compound	TNF-α Inhibition (0.01%) (TNF-α)	LO Inhibition (0.1%) (15-lipoxygenase)
3-(4-ethylphenyl)-2,2-dimethylpropanal and 3-(2-ethylphenyl)-2,2-dimethylpropanal [Floralozone]	−33.20%	–
CCCCCCCCC(C)C=O (stereo not shown) [Aldehyde C-11 MOA, 2-methyldecanal]	−38.68%	–
CCCCCC/C=C/C(=O)OC [Neofolione, methyl non-2-enoate]	−53.90%	−27.46%
